Measurements: patent EP0745083B1, “2-HETEROARYL-5,11-DIHYDRO-6H-DIPYRIDO [3,2-b:2',3'-e][1,4]DIAZEPINES AND THEIR USE IN THE PREVENTION OR TREATMENT OF HIV INFECTION” (BOEHRINGER INGELHEIM PHARMACEUTICALS INC., priority 1994, dated 1995)

Columns and labels:
[1] = target: T1, HIV-1 RT wild type (WT) enzyme (Human immunodeficiency virus type 1 group M subtype B, UniProt P03367); experiment: Reverse Transcriptase (RT) Assay, wild type enzyme (RNA-dependent DNA polymerase activity); type: biochemical, Human Immunodeficiency Virus (HIV-1); conditions: 1 µM compound, read-out: Reverse Transciptase Assay % inhibition (1 µM) WT
T1 construct: Reverse transcriptase enzyme from the LAV strain of Human Immunodeficiency Virus (HIV-1) (1) was isolated from the bacterial strain JM109; made in house; host or cells: E. coli JM109 (clone pBRTprt1+ in vector pIBI21, lac promoter)
Source text: Utilizing the Reverse Transcriptase (RT) Assay described below, compounds can be tested for their ability to inhibit the RNA-dependent DNA polymerase activity of HIV-1 RT. Certain specific compounds described in the Examples which appear below, were so tested.
Among the enzymes for which Human Immunodeficiency Virus (HIV-1) encodes is a reverse transcriptase (1), so-named because it transcribes a DNA copy from an RNA template. This activity can be quantitatively measured in a cell-free enzyme assay, which has been previously described (2), and is based upon the observation that reverse transcriptase is able to use a synthetic template [poly r(C) primed with oligo d(G)] to transcribe a radio-labelled, acid-precipitable DNA strand utilizing ^3H-dGTP as a substrate. The assay described below utilizes the wild type (WT) enzyme, which is the predominant form of the enzyme observed in patients infected with HIV-1. Utilization of mutant RT eraymes (Y181C and Y181L, prepared by site-directed mutagenesis in which the tyrosine residue at codon 181 has been replaced by a cysteine or a leucine residue, respectively) and analogous assay conditions allows compounds to be evaluated for their effectiveness at inhibiting these mutant enzymes.
Reverse transcriptase enzyme from the LAV strain of Human Immunodeficiency Virus (HIV-1) (1) was isolated from the bacterial strain JM109 (3) expressing the DNA clone pBRTprt1+ (2) which is under the control of the lac promotor in the expression vector pIBI21 (4). An overnight culture grown in 2XYT medium (37°C, 225 rpm) (5) supplemented with 100 µg/mL ampicillin for positive selection is inoculated at a 1:40 dilution into M9 medium supplemented with 10µg/mL thiamine, 0.5% casamino acids, and 50 µg/mL ampicillin (5). The culture is incubated (37°C, 225 rpm) until it reaches an OD540 of 0.3-0.4. At that time the repressor inhibitor IPTG (isopropyl β-D-thiogalactopyranoside) is added to 0.5mM, and the mixture is incubated for 2 additional hours. Bacteria are pelleted, resuspended in a 50mM Tris, 0.6mM EDTA, 0.375M NaCl buffer and digested by the addition of lysozyme (1mg/mL) for 30 minutes on ice. The cells are lysed by the addition of 0.2% NP-40 and brought to 1M NaCl.
After removal of the insoluble debris by centrifugation, the protein is precipitated by the addition of 3 volumes of saturated aqueous ammonium sulfate. The enzyme is pelleted, resuspended in RT buffer (50mM Tris pH 7.5, 1mM EDTA, 5mM DTT, 0.1% NP-40, 0.1M NaCI, and 50% glycerol), and stored at -70°C for further use.
The 2X concentrated stock reaction mixture is aliquoted and stored at -20°C. The mixture is stable and thawed for use in each assay. This enzyme assay has been adapted to a 96 well microtiter plate system, and has been previously described (6). Tris buffer (50 mM, pH 7.4), vehicle (solvent diluted to match the compound dilution), or compounds in vehicle are dispensed into 96-well microtiter plates (10µL/well; 3 wells/ compound). The HIV-1 RT enzyme is thawed, diluted in 50mM Tris pH 7.4 so that fifteen µL of diluted enzyme contain 0.001 Unit (one unit is that amount of enzyme to transform 1 micromole of substrate per minute at 25°C), and fifteen µL are dispensed per well. Twenty µL of 0.12-0.5M EDTA are added to the first three wells of the microtiter plate. EDTA chelates the Mg^++ present and prevents reverse transcription. This group serves as background polymerization which is subtracted from all other groups. Twenty-five ul of the 2X reaction mixture are added to all wells and the assay is allowed to incubate at room temperature for 60 minutes. The assay is terminated by precipitating the DNA in each well with 50µL of 10% trichloracetic acid (TCA) (10% w/v) in sodium pyrophosphate (1% w/v). The microtiter plate is incubated for 15 minutes at 4°C and the precipitate is fixed onto #30 glass fiber paper (Schleicher & Schuell) using a Skatron semi-automatic harvester. […]

[2] = MTT assay (cytotoxicity); type: cell-based; conditions: human; H9 cells; five days incubation
Experimental: In order to roughly assess the cytotoxicity of the compounds provided by the invention, several such compounds were tested in the MTT Assay described below. Compounds having a relatively high CC50 are preferred.
The MTT [3-(4,5-dimethylthiazol-2-yl)-2,5 diphenyl tetrazolium bromide) assay is based on cleavage of tetrazolium bromide by metabolically active cells, resulting in a highly quantitative blue color. This assay has been previously described (1) but has been optimized for the purposes of the testing reported herein.
The H9 cell line (2), an established human lymphoma suspension cell line grown in RPMI 1640 supplemented with 10% fetal bovine serum, is used as the target cell line in the assay. Cells (100µL) are plated in microtest plate wells at a concentration of 10^5 cells per mL in the presence of varying concentrations of inhibitor. The cells are incubated at 37°C in a humidified CO2 incubator. Five days later, 20µL of MTT (5mg/mL in RPMI 1640, sonicated, 0.2 micron filtered, and stored at 4°C) is added to each well. After 4 hours additional incubation at 37°C, 60µL of Triton-X is added to each well and thoroughly mixed to aid the solubilization of the crystals. Absolute ethanol (5µL) is added to each well and the resulting mixture is incubated for 30 minutes at 60°C and immediately read on a plate reader (Dynatech) at a wavelength of 570nm.
Data from this assay are used to generate a nonlinear regression analysis which yields an CC50.

[3] = target: T2, HIV-1 RT Y188L (Human immunodeficiency virus type 1 group M subtype B, UniProt P03367, Y787L); experiment: Reverse Transcriptase (RT) Assay, Y188L mutant enzyme; type: biochemical, Human Immunodeficiency Virus (HIV-1); conditions: 1 µM compound
T2 construct: effective against the reverse transcriptase of many mutant viruses; made in house

CCN1c2ncccc2C(=O)N(C)c2ccc(-c3cn[nH]c3)nc21 [Example 1, 5,11-Dihydro-11-ethyl-5-methyl-2-(4-pyrazolyl)-6H-dipyrido[3,2-b:2'3'-e][1,4]diazepin-6-one]
inhibition at 1 µM [1]: 97% | CC50 at 120 h [2]: > 60 µM | Reverse Transciptase Assay % inhibition (1 µM) Y188L ([3]; 1 µM): 77%

CN1C(=O)c2cccnc2N(C2CC2)c2nc(-c3cn[nH]c3)ccc21 [Example 6, 5,11-Dihydro-5-methyl-11-c-propyl-2-(4-pyrazolyl)-6H-dipyrido[3,2-b:2',3'-e][1,4]diazepin-6-one]
inhibition at 1 µM [1]: 94% | CC50 at 120 h [2]: > 60 µM | Reverse Transciptase Assay % inhibition (1 µM) Y188L [3]: 84%

CCN1c2ncccc2C(=O)N(C)c2ccc(-c3cc[nH]c3)nc21 [Example 12, 5,11-Dihydro-11-ethyl-5-methyl-2-(3-pyrrolyl)-6H-dipyrido[3,2-b:2',3'-e][1,4]diazepin-6-one]
inhibition at 1 µM [1]: 95% | CC50 at 120 h [2]: > 50 µM

CN1C(=O)c2cccnc2N(C2CC2)c2nc(-c3cc[nH]c3)ccc21 [Example 25, 11-Cyclopropyl-5,11-dihydro-5-methyl-2-(3-pyrrolyl)-6H-dipyrido[3,2-b:2',3'-e][1,4]diazepin-6-one]
inhibition at 1 µM [1]: 92% | CC50 at 120 h [2]: > 80 µM | Reverse Transciptase Assay % inhibition (1 µM) Y188L [3]: 80%
